Laboratory results published in patent publication US20260103740A1, “METHOD AND APPARATUS FOR USING L[…] BEADS FOR ANTIMICROBIAL SUSCEPTIBILITY TESTING” (General Electric Company, priority 2022, published 2026).

System: E. coli
Details: samples loaded by microfluidic manifold and manually (non-manifold control); antibiotic bead minus control bead Ct; FIG. 7
Description: The tetracycline-lyophilized reagent bead 68 was prepared such that each tetracycline-lyophilized reagent bead 68 when dissolved in 10 microliters of water yields a solution containing 0.1, 0.5, 2, and 10, micrograms of tetracycline/mL of water. To complete the trials, the embedded amplification bead 20 in the solid wax 28 was placed at the bottom of each of the amplification reaction vessels 24, and the antibiotic bead 22 was placed on top of the solid wax 28. […] Bacterial growth in the presence of the varying tetracycline concentrations mentioned above was conducted for a period of about three hours at an incubation temperature of 37° C. The temperature was then raised to above the melting point of the solid wax 28, and amplification was performed to assess the inhibitory effects of tetracycline on bacterial growth. The threshold value (Ct) of the amplification reactions were measured. […] The data was normalized by subtracting the mean Ct value for no-drug positive control from individual Ct values across the drug-containing incubations. […]
As shown in the graphical representation of lyophilized drug reagent bead testing 60, the tetracycline concentration 62 for both liquid tetracycline 66, the control group reagent, and tetracycline-lyophilized reagent beads 68 were measured in micrograms per milliliter (μg/mL), relative to the delta Ct values 64 produced by the concentration. […]

## CN(C)[C@@H]1C(O)=C(C(N)=O)C(=O)[C@@]2(O)C(O)=C3C(=O)c4c(O)cccc4[C@@](C)(O)[C@H]3C[C@@H]12.Cl [tetracycline, Tetracycline hydrochloride]
  growth inhibition (delta Ct values versus tetracycline concentration): demonstrated growth inhibition at the same concentrations
